This is an account of results in patent US11370779B2, “Pharmaceutical composition for preventing or treating acute myeloid leukemia or metastatic breast cancer” (PELEMED CO., LTD., priority 2017, dated 2022).

Structures can show the parent of a compound that is named as a salt. Where two headings read alike, the source gives them in different places.

One data set relates to MV4;11 cells. Briefly: Cell viability, EZ-Cytox tetrazolium assay, MV4;11. The format is cell-based, human. As to conditions: 72 hours; for GI50: read-out: GI50(nM) MV4;11. How it is done:
The cultured cells were incubated at 3° C. with 5% CO2.
(§1) Cell viability was assessed by a tetrazolium-based assay using the EZ-Cytox Cell Viability Assay kit (DaeilLab, Korea). Briefly, 2,000 to 15,000 cells were plated in 96-well plates in 100 μl of medium. The next day, the cells were treated with compounds together with dimethyl sulfoxide (DMSO) as a negative control. Three days (72 hours) after the drug addition, 15 μl of the EZ-Cytox kit reagent was added to each well of the 96-well plate and then incubated at 37° C. in a humidified CO2 incubator for 4 hours. After incubation, the optical density (OD) was measured at a wavelength of 450 nm using a Victor multilabel reader (Perkin Elmer, Waltham, Mass., USA).

In the next data set the target is FLT3 kinase (Homo sapiens (Human), UniProt P36888). The experiment in a line: In vitro FLT3 kinase HTRF assay (Example 2). The format is biochemical. As to conditions: HTRF. The method, then:
Inhibition of the FLT3 kinase activity was measured using homogeneous, time-resolved fluorescence (HTRF) assays. Recombinant proteins containing the FLT3 kinase domain were purchased from Carna biosciences (Japan). Optimal enzyme, ATP, and substrate concentrations were established using the HTRF KinEASE kit (Cisbio, France) according to the manufacturer's instructions. The FLT3 enzymes were mixed in sequence with diluted compounds and peptide substrates in a kinase reaction buffer (50 mM HEPES (pH 7.0), 500 μM ATP, 0.1 mM sodium orthovanadate, 5 mM MgCl2, 1 mM DTT, 0.01% bovine serum albumin (BSA), and 0.02% NaN3). After the addition of the reagents for detection, the TR-FRET signal was measured using a Victor multilabel reader (Perkin Elmer, Waltham, Mass., USA). […] JAK2, JAK3, cMET, and RET in vitro kinase assays were also performed using the HTRF assay.

A further data set deals with MDA-MB-231. The experiment in a line: Cell viability, EZ-Cytox tetrazolium assay, MDA-MB-231. The conditions noted are these: 72 hours. The format is cell-based, human. The method, then: MDA-MB-231 (metastatic breast cancer, ATCC HTB-26), Jurkat (human acute T lymphocytic leukemia, ATCC TIB-152), and K-562 (human chronic myelogenous leukemia, ATCC CCL-243) cells were cultured in RPMI-1640 (Sigma Co.). MCF7 (human breast adenocarcinoma, ATCC HTB-22) and PC-3 (human prostate adenocarcinoma, ATCC CRL-1435) cells were cultured in DMEM (Sigma Co.) medium supplemented with 10% fetal bovine serum and 1% penicillin/streptomycin. The cultured cells were incubated at 3° C. with 5% CO2.
as §1, with “USA). The IC50 was calculated by nonlinear regression using Prism version 5.01 (GraphPad, La Jolla, Calif., USA).” for “USA).”

For the next data set, the system named is MDA-MB-231 xenograft. The experiment in a line: MDA-MB-231 mouse tumor xenograft. The format is in vivo. The conditions noted are these: 20 mg/kg/p.o/day, 4 weeks. The method, then:
6-weeks-old Balb/c nu/nu mice (female) were purchased from Central Lab. Animal Inc. to be used. […] The candidate substances LDD-2614 (Compound 21), 2633 (Compound 28), 2634 (Compound 34), 2635 (Compound 33) were administered at 20 mg/kg/p.o/day, and doxorubicin, which was a control, was administered at 5 mg/kg/i.p (once a week) for 4 weeks.

Another data set relates to MV4-11 xenograft. Briefly: MV4-11 mouse tumor xenograft, oral administration.
For another data set, the system named is MOLM14 FLT3-ITD-D835Y. Briefly: Cell proliferation MTT assay, MOLM14-ITD-D835Y. The format is cell-based, human. The conditions noted are these: for GI50: Homo sapiens, MOLM-14. In general terms: Formazan colour is commonly taken as a measure of viable cells.
Another data set relates to MOLM14 Wild type. Briefly: Cell proliferation MTT assay, MOLM14 wild type. The format is cell-based. The conditions noted are these: Homo sapiens, MOLM-14.
The mark [1] stands for this setting: Table 1, recombinant FLT3 kinase domain, 500 μM ATP.

Chain of FLT3 kinase (P36888 610-943): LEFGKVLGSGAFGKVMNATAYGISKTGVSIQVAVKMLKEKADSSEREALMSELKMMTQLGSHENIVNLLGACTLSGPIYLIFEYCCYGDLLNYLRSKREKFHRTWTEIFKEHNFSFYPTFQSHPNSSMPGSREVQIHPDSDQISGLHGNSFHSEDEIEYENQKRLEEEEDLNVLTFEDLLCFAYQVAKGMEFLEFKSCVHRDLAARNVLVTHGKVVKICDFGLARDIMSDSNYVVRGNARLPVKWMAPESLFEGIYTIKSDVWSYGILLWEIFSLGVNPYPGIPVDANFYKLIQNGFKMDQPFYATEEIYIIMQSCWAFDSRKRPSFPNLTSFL
Procedure for MOLM14 FLT3-ITD-D835Y: (§2) MOLM14 were purchased from the ATCC and the cells were maintained in RPMI medium (Hyclone) with 10% Fetal bovine serum (Gibco) and 1% penicillin/streptomycin.
Mutagenesis is performed in FLT3-ITD MSCV plasmid using Q5 site-directed mutagenesis kit (E05545). […] Retroviral particles were produced by transiently transfecting HEK293T cells with Retroviral vectors together with packaging vectors, GPE and VSVG. 48 h after transfection, media containing viral particles were collected and filtered for infection. Viral particles were infected to MOLM14 cells and 48 h after infection, infected cells were selected with puromycin (1 μg/mL).
Source text for MOLM14 Wild type: as §2
Procedure for MV4-11 xenograft: The drug or the control PBS was administered daily for a duration of 21 days. Tumor sizes were measured twice a week for 21 days, and the tumor volumes were calculated with the following formula: V (volume)=X (length)×D (width)2/2. After 21 days, the mice were sacrificed, and the tumor weights were measured.
An in vivo MV4-11 xenograft study was performed to determine the efficacy of the indirubin derivatives. MV4-11 cells were subcutaneously injected into BALB/c nu/nu mice, and tumors were allowed to grow to a size of approximately 100 mm^3.

A word on the IC50: it is the concentration that gives 50% inhibition. `COC(=O)c1ccc2c(c1)/C(=C1/Nc3ccccc3/C1=N\OCCBr)C(=O)N2` [Compound 2, Methyl (2Z,3E)-3-((2-bromoethoxy)imino)-2′-oxo-[2,3′-biindolinylidene]-5′-carboxylate]: the half-maximal inhibitory concentration (IC50) is 51 nM in the data set on MV4;11 cells (Homo sapiens, MV4-11, Table 1) and 19 nM on FLT3 kinase (setting [1]).

As for `COC(=O)c1ccc2c(c1)/C(=C1/Nc3ccccc3/C1=N\OCCN)C(=O)N2` [Compound 3, Methyl (2Z,3E)-3-((2-aminoethoxy)imino)-2′-oxo-[2,3′-biindolinylidene]-5′-carboxylate hydrochloride], the half-maximal inhibitory concentration (IC50) was 15 nM with MV4;11 cells (Homo sapiens, MV4-11, Table 1) and 5 nM at FLT3 kinase (setting [1]).

Regarding `O=C1Nc2ccc(C(=O)O)cc2/C1=C1/Nc2ccccc2/C1=N\O` [Compound 7, (2Z,3E)-3-(hydroxyimino)-2′-oxo-[2,3′-biindolinylidene]-5′-carboxylic acid], the IC50 with MV4;11 cells (Homo sapiens, MV4-11, Table 1) is 4020 nM; on FLT3 kinase (setting [1]) it was 8 nM. Also, the “Ic50 (nM) MV4;11” value in the data set with MV4;11 cells (Table 1) was “lacking anti-proliferative activity”.

Take `O=C1Nc2ccc(C(=O)O)cc2/C1=C1/Nc2ccccc2/C1=N\OCCBr` [Compound 8, (2Z,3E)-3-((2-bromoethoxy)imino)-2′-oxo-[2,3′-biindolinylidene]-5′-carboxylic acid]: the IC50 with MV4;11 cells (Homo sapiens, MV4-11, Table 1) was 340 nM; at FLT3 kinase (setting [1]) it was 13 nM.

Consider `NCCO/N=C1/C(=C2/C(=O)Nc3ccc(C(=O)O)cc32)Nc2ccccc21` [Compound 9, (2Z,3E)-3-((2-aminoethoxy)imino)-2′-oxo-[2,3′-biindolinylidene]-5′-carboxylic acid hydrochloride], for which the half-inhibitory concentration (IC50) is 150 nM in the data set on MV4;11 cells (Homo sapiens, MV4-11, Table 1) and 3 nM at FLT3 kinase (setting [1]).

One may read the GI50 as the concentration that inhibits growth by half. Take `O=C1Nc2ccc([N+](=O)[O-])cc2/C1=C1/Nc2ccc(O)cc2/C1=N\O` [Compound 13, (2Z,3E)-5-hydroxy-3-(hydroxyimino)-5′-nitro-[2,3′-biindolinylidene]-2′-one]: the GI50 turned out to be 170 nM in the data set with MV4;11 cells (Homo sapiens, MV4-11) and 568 nM in the data set with MDA-MB-231 (Homo sapiens, MDA-MB-231). The molecule also showed a half-maximal inhibitory concentration (IC50) against FLT3 kinase (Table 2) of 23.4 nM.

As to `Cl.Cl.O=C1Nc2ccc(F)cc2/C1=C1/Nc2ccc(F)cc2/C1=N\OCCN1CCNCC1` [Compound 21, (2Z,3E)-5,5′-difluoro-3-((2-(piperazin-1-yl)ethoxy)imino)-[2,3′-biindolinylidene]-2′-one dihydrochloride], the GI50 in the data set with MV4;11 cells (Homo sapiens, MV4-11) was 8.9 nM; with MDA-MB-231 (Homo sapiens, MDA-MB-231) it was 121 nM. The “weights of the liver and the kidney” value in the data set on MDA-MB-231 xenograft was “no significant difference”.

For the molecule `O=C1Nc2ccc(F)cc2/C1=C1/Nc2ccc(F)cc2/C1=N\OCCN1CCOCC1` [Compound 27, (2Z,3E)-5,5′-difluoro-3-((2-morpholinoethoxy)imino)-[2,3′-biindolinylidene]-2′-one hydrochloride], the GI50 in the data set with MV4;11 cells (Homo sapiens, MV4-11) was 116 nM; in the data set with MDA-MB-231 (Homo sapiens, MDA-MB-231), greater than 10 nM. Moreover, inhibition against FLT3 kinase (Table 2) was half-maximal at 939 nM (IC50).

For `Cl.Cl.O=C1Nc2ccccc2/C1=C1/Nc2ccccc2/C1=N\OCCN1CCNCC1` [Compound 28, (2Z,3E)-3-((2-(piperazin-1-yl)ethoxy)imino)-[2,3′-biindolinylidene]-2′-one dihydrochloride], the GI50 with MV4;11 cells (Homo sapiens, MV4-11) was determined as 0.51 nM; with MDA-MB-231 (Homo sapiens, MDA-MB-231) it was 276 nM. Moreover, the “weight loss or other signs of toxicity during the administration period” value in the data set on MV4-11 xenograft (20 mg/kg oral once daily for 21 days) is reported as “no weight loss or any other signs of toxicity”. For the same molecule, the “day by which the tumor disappeared” value with MV4-11 xenograft (20 mg/kg oral once daily, based on measured tumor volume) was no more than 14 days. Besides, the “weights of the liver and the kidney” value with MDA-MB-231 xenograft is given as “no significant difference”.

Turning to `CN1CCN(CCO/N=C2/C(=C3/C(=O)Nc4ccc(F)cc43)Nc3ccccc32)CC1.Cl.Cl` [Compound 34, (2Z,3E)-5′-fluoro-3-((2-(4-methylpiperazin-1-yl)ethoxy)imino)-[2,3′-biindolinylidene]-2′-one dihydrochloride], the 50% growth inhibitory concentration (GI50) came out at 11.1 nM in the data set with MV4;11 cells (Homo sapiens, MV4-11) and 127 nM in the data set on MDA-MB-231 (Homo sapiens, MDA-MB-231). The “weights of the liver and the kidney” value in the data set with MDA-MB-231 xenograft is “no significant difference”.

Turning to `CN1CCN(CCO/N=C2/C(=C3/C(=O)Nc4ccc(Br)cc43)Nc3ccccc32)CC1` [Compound 41, (2Z,3E)-5′-bromo-3-((2-(4-methylpiperazin-1-yl)ethoximino)-[2,3′-biindolinylidene]-2′-one dihydrochloride], the GI50 with MV4;11 cells came out at 25 nM. At FLT3 kinase (Table 2), this molecule came in with an IC50 of 4.8 nM.

With `CC1(COc2ccc3c(c2)ncn3-c2ccc3cccc(N4CCC(N)CC4)c3n2)COC1` [Crenolanib], the concentration for 50% growth inhibition (GI50) stood at 15 nM with MOLM14 FLT3-ITD-D835Y and 4.7 nM in the data set on MOLM14 Wild type.

`CCc1nc(C(N)=O)c(Nc2ccc(N3CCC(N4CCN(C)CC4)CC3)c(OC)c2)nc1NC1CCOCC1` [Gilteritinib]: the values for the concentration for 50% growth inhibition (GI50) in the data set on MOLM14 FLT3-ITD-D835Y and with MOLM14 Wild type were 43 nM and 8.5 nM, respectively.

As to `CO[C@@H]1[C@H](N(C)C(=O)c2ccccc2)C[C@H]2O[C@]1(C)n1c3ccccc3c3c4c(c5c6ccccc6n2c5c31)C(=O)NC4` [Midostaurin], the GI50 turned out to be 79 nM in the data set with MOLM14 FLT3-ITD-D835Y and 80 nM in the data set on MOLM14 Wild type.

For `CNC(=O)c1cc(Oc2ccc(NC(=O)Nc3ccc(Cl)c(C(F)(F)F)c3)cc2)ccn1` [Sorafenib], in the data set with MOLM14 FLT3-ITD-D835Y, the “GI50 (nM) MOLM14-ITD D835Y” value is listed as “No Activity”. In the data set with MOLM14 Wild type, this molecule displayed a GI50 of 28 nM.

With “(2Z,3E)-2′-oxo-3-((2-(piperazin-1-yl)ethoximino)-[2,3′-biindolinylidene]-5′-carboxylic acid dihydrochloride [Compound 10]”, the IC50 came out at 40 nM in the data set on MV4;11 cells (Table 1) and 3 nM on FLT3 kinase (setting [1]).

Turning to “(2Z,3E)-3-((2-(4-methylpiperazin-1-yl)ethoxy)imino)-5′-(trifluoromethox[2,3′-biindolinylidene]-2′-one dihydrochloride [Compound 45]”, the concentration for 50% growth inhibition (GI50) in the data set on MV4;11 cells is 22 nM. This molecule registered a half-maximal inhibitory concentration (IC50) against FLT3 kinase (Table 2) of 5.6 nM.

Consider “(2Z,3E)-5′-fluoro-3-((2-(pyrrolidin-1-yl)ethoximino)-[2,3′-biindolinylidene]-2′-one hydrochloride [Compound 36]”, for which the GI50 was 212 nM in the data set with MV4;11 cells and 805 nM in the data set on MDA-MB-231. Moreover, at FLT3 kinase (Table 2), the IC50 was 267 nM.

Regarding “(2Z,3E)-34(2-(piperazin-1-yl)ethoxy)imino)-5′-(trifluoromethoxy)-[2,3′-biindolinylidene]-2′-one dihydrochloride [Compound 44]”, in the data set on MV4;11 cells, the GI50 is 20 nM. The molecule further registered a concentration for half-maximal inhibition (IC50) on FLT3 kinase (Table 2) of 40.2 nM.
